Patent US8835503B2, “Pharmaceutical composition containing GLUR2-lacking AMPAR antagonist for preventing or treating psychiatric illnesses” (SNU R&DB Foundation, priority 2009, dated 2014)

System: fear memory renewal
Test: Blocking of fear memory renewal by NASPM administered into the amygdala (freezing response)
Assay type: in vivo, rat
Conditions: for fear responses (freezing) in memory renewal test: 15 minutes before measuring fear memory, vs control group
Protocol: For fear memory learning, the rats were exposed to sound stimuli of a single tone (2.8 kHz, 85 dB) for 30 seconds, and subjected to an electric foot shock (1.0 mA) for 1 second at the end of said 30-second period. The sound stimuli and the electric foot shock were repeated 3 times at 100 second intervals. 1 minute later after the last electric foot shock, the rats were returned to their home cages. On day 2, fear memory learning was performed in the same way.
From day 3, memory extinction was performed in a context different from that of the fear memory learning On day 4, the rats were exposed to only sound stimuli 20 times at 100 second intervals without an electric foot shock. On days 5 and 6, the sound stimuli were repeated 15 times at 100 second intervals.
On day 7, memory renewal test was performed. The rats experienced memory extinction were placed in the place of the fear memory learning for 10 minutes, and then, memory renewal was induced by exposing the rats to sound stimuli for 30 seconds.
The experiment was performed using the rats which experienced fear memory learning, memory extinction and memory renewal in accordance with the method described in Example 1-1. White rats, 8-9 weeks old (Sprague-Dawley Rat, Male; Samtako, Korea), were used.
The rats were anesthetized by intraperitoneal injection of pentobarbital sodium (50 mg/kg; Entobal, Hanlim Pharma, Co., Ltd., Korea). After fully anesthetized, the rats were mounted on a stereotaxic apparatus (David Kopf Instruments, Tujunga, Calif., USA), and then, stainless steel cannulas of 26 gauge (Model C315G, Plastic Products, Roanoke, Va., USA) were implanted bilaterally into the amygdala (AP; […], ML; +/−5.15, DV; −7.0 mm) by operation. A 32 gauge dummy cannula was inserted into each cannula to prevent clogging. After a recovery period of at least 1 week, the rats were subjected to fear memory learning, memory extinction and memory renewal tests. […]
Conditioned freezing was defined as immobility except for respiratory movements, and was quantified by trained observers that were blind to the experimental groups.

## N-naphthylspermine [NASPM]
10 μg NASPM into the amygdala
  fear responses (freezing) in memory renewal test: insignificant effect
40 μg NASPM into the amygdala
  fear responses (freezing) in memory renewal test: remarkably less fear responses
Administered in the amygdala, 10 μg and 40 μg
  blocking of fear memory renewal: blocks the fear memory renewal in a concentration-dependent manner
